Test: Plasma concentrations of tamoxifen and its metabolites in breast cancer patients on tamoxifen, by HPLC-tandem mass spectrometry
Text: One hundred and thirty five Caucasian patients of Spanish descent recently diagnosed with BC were recruited from the center Fundación Tejerina-Centro de Patología de la Mama (Madrid). Premenopausal and postmenopausal women were enrolled when started on TAM as standard adjuvant therapy after undergoing primary surgery, radiation and adjuvant chemotherapy. Patients were excluded if they had started TAM therapy simultaneously with either adjuvant chemotherapy or adjuvant radiation therapy (or both) or if they were undergoing other adjuvant endocrine therapies. Patients who were pregnant or breast-feeding were also excluded from the study. […] Blood samples were collected within 3 to 60 months of initiating TAM treatment.
Venous blood was collected from all 135 subjects before taking their daily 20- mg dose of TAM. Ten milliliters of heparin plasma were separated by centrifugation and immediately stored at −20°C until analysis. In addition, one milliliter of an EDTA blood sample was taken for subsequent DNA extraction and genotyping. DNA was isolated from peripheral leukocytes using a QIAamp DNA Blood Mini Kit® (Qiagen, Madrid, Spain) according to the manufacturer’s instructions. The DNA concentration was determined and adjusted to 2–20 ng/ µL.
TAM and its metabolites were separated and quantified by high-pressure liquid chromatography-tandem mass spectrometry using an Agilent HPLC 1200 system. HPLC experiments were performed using a binary pump G1312A, a G1316A column oven, G1379B degasser and an automatic injector H-ALS G1367B. Mobile phase A and phase B consisted of 0.1% formic acid in water and acetonitrile, respectively. Mobile phases A and B were pumped through a ZORBAX Eclipse XDB-C18 column (150 mm×2.1 mm I.D., 3.5 µm, Agilent USA) at a flow rate of 0.2 mL/min using the gradient shown in Table 1. Separation was conducted at 30°C. 15- µL aliquots were injected and the autosampler needle was rinsed in acetonitrile/water solution (1∶1). The total run time was 20 min. During the first 4.0 and last 2.0 min, the eluate was removed using a divert valve to avoid endogenous compounds entering the mass spectrometer.
As a detector, we used an A 6410 Triple Quadrupole mass spectrometer (Agilent Technologies, USA) equipped with a heated electrospray ionization source (Thermo Fisher Scientific, Waltham, MA, USA) operating in positive ion mode. For quantification, multiple reaction monitoring (MRM) chromatograms were acquired using Mass Hunter software version B.01.04 (Agilent Technologies, USA). Positive ions were created at atmospheric pressure. Quadrupoles operated at unit resolution (0.7 Da).
A 300- µL volume of 1% formic acid in acetonitrile containing internal standards was added to a 100- µL serum aliquot. After vortexing and centrifugation, the clear supernatant was transferred to a HybridSPE column (Supelco) and the eluents stored at 2–8°C until analysis. Samples were analyzed in triplicate.
Descriptive statistics were calculated using standard methods. Metabolic ratios were calculated as the concentration of substrate/concentration of metabolite. The non-normal distribution of data was confirmed by the Kolmogorov-Smirnov test. Levels of TAM, metabolites and ratios between genotype groups were compared using Wilcoxon-Mann-Whitney or Kruskal-Wallis tests. All statistical tests (two-sided) were performed using SPSS software (version 18.0 SPSS, Chicago, IL). Significance was set at a p<0.05.

## CC/C(=C(\c1ccccc1)c1ccc(OCCN(C)C)cc1)c1ccccc1 [Tamoxifen, reference compound]
Genotype CYP2D6 I/I, n = 1
  plasma concentration, mean ±SD: 130.54 ± 0.00 ng/mL
  plasma concentration, median: 130.54 ng/mL
  plasma concentration, range: (130.54–130.54) ng/mL
Genotype CYP2D6 I/P, n = 8
  plasma concentration, range: (88.08–289.96) ng/mL
Genotype CYP2D6 P/P, n = 2
  plasma concentration, mean ±SD: 278.43 ± 132.13 ng/mL
  plasma concentration, median: 278.43 ng/mL
  plasma concentration, range: (185.00–371.83) ng/mL
Genotype CYP2D6 wt/I, n = 4
  plasma concentration, mean ±SD: 208.48 ± 66.06 ng/mL
  plasma concentration, range: (151.94–302.03) ng/mL
Genotype CYP2D6 wt/P, n = 26
  plasma concentration, mean ±SD: 209.57 ± 121.53 ng/mL
  plasma concentration, range: (89.79–576.23) ng/mL
Genotype CYP2D6 wt/wt, n = 78
  plasma concentration, mean ±SD: 203.05 ± 80.53 ng/mL
  plasma concentration, range: (77.10–573.83) ng/mL
Genotype CYP2D6 wtxN/P, n = 2
  plasma concentration, range: (102.91–264.41) ng/mL
Genotype CYP3A4 wt/*1B, n = 3
  plasma concentration, mean ±SD: 260.69 ± 136.19 ng/mL
  plasma concentration, median: 261.00 ng/mL
  plasma concentration, range: (124.35–396.73) ng/mL
Genotype CYP3A4 wt/*3, n = 2
  plasma concentration, mean ±SD: 212.83 ± 68.55 ng/mL
  plasma concentration, median: 212.83 ng/mL
  plasma concentration, range: (164.35–261.30) ng/mL
Genotype CYP3A4 wt/*17, n = 9
  plasma concentration, mean ±SD: 230.28 ± 153.17 ng/mL
  plasma concentration, range: (88.08–573.83) ng/mL
Genotype CYP3A4 wt/wt, n = 107
  plasma concentration, mean ±SD: 198.93 ± 89.59 ng/mL
  plasma concentration, range: (77.10–576.23) ng/mL
Genotype CYP3A5 *3/*3, n = 117
  plasma concentration, mean ±SD: 204.98 ± 96.33 ng/mL
  plasma concentration, range: (77.10–576.23) ng/mL
Genotype CYP3A5 wt/*3, n = 6
  plasma concentration, mean ±SD: 164.16 ± 51.72 ng/mL
  plasma concentration, median: 160.17 ng/mL
  plasma concentration, range: (112.43–235.19) ng/mL
Genotype SULT1A1 *2/*2, n = 15
  plasma concentration, mean ±SD: 205.87 ± 101.52 ng/mL
  plasma concentration, median: 161.90 ng/mL
  plasma concentration, range: (102.43–396.73) ng/mL
Genotype SULT1A1 wt/*2, n = 46
  plasma concentration, mean ±SD: 204.84 ± 107.12 ng/mL
  plasma concentration, range: (77.10–573.83) ng/mL
Genotype SULT1A1 wt/wt, n = 60
  plasma concentration, mean ±SD: 200.92 ± 86.14 ng/mL
  plasma concentration, range: (88.08–576.23) ng/mL
Genotype SULT1A2 *2/*2, n = 16
  plasma concentration, range: (95.67–396.73) ng/mL
Genotype SULT1A2 *2/*3, n = 13
  plasma concentration, mean ±SD: 222.50 ± 93.29 ng/mL
  plasma concentration, median: 240.78 ng/mL
  plasma concentration, range: (112.43–371.37) ng/mL
Genotype SULT1A2 *3/*3, n = 5
  plasma concentration, median: 164.35 ng/mL
  plasma concentration, range: (122.20–302.03) ng/mL
Genotype SULT1A2 wt/*2, n = 33
  plasma concentration, mean ±SD: 227.33 ± 131.55 ng/mL
  plasma concentration, range: (88.08–576.23) ng/mL
Genotype SULT1A2 wt/*3, n = 16
  plasma concentration, range: (89.79–378.32) ng/mL
Genotype SULT1A2 wt/wt, n = 38
  plasma concentration, range: (77.10–375.04) ng/mL
Genotype SULT1E1 *2/*2, n = 5
  plasma concentration, mean ±SD: 232.36 ± 83.23 ng/mL
  plasma concentration, median: 202.74 ng/mL
  plasma concentration, range: (166.20–375.04) ng/mL
Genotype SULT1E1 wt/*2, n = 28
  plasma concentration, mean ±SD: 200.49 ± 77.50 ng/mL
  plasma concentration, range: (77.10–368.73) ng/mL
Genotype SULT1E1 wt/wt, n = 88
  plasma concentration, mean ±SD: 202.17 ± 101.97 ng/mL
  plasma concentration, range: (89.79–576.23) ng/mL

## CC/C(=C(\c1ccccc1)c1ccc(OCC[N+](C)(C)[O-])cc1)c1ccccc1 [Tamoxifen-N-oxide, tamoxifen-N-oxide]
All samples analyzed, n = 125, before daily 20 mg TAM dose
  mean plasma concentration (±SD): 50.88 ± 23.09 ng/mL
Genotype CYP2D6 wt/P, n = 26
  plasma concentration, mean ±SD: 54.04 ± 25.63 ng/mL
Genotype SULT1A1 *2/*2, n = 15
  plasma concentration, mean ±SD: 56.02 ± 24.50 ng/mL
  plasma concentration, median: 59.27 ng/mL
  plasma concentration, range: (15.69–99.37) ng/mL
Genotype SULT1A1 wt/*2, n = 46
  plasma concentration, mean ±SD: 51.02 ± 27.88 ng/mL
  plasma concentration, median: 41.84 ng/mL
  plasma concentration, range: (17.43–142.97) ng/mL
Genotype SULT1A1 wt/wt, n = 60
  plasma concentration, mean ±SD: 48.69 ± 18.93 ng/mL
  plasma concentration, range: (15.69–106.35) ng/mL
Genotype SULT1A2 *2/*2, n = 16
  plasma concentration, mean ±SD: 47.18 ± 20.97 ng/mL
  plasma concentration, median: 50.56 ng/mL
  plasma concentration, range: (15.69–81.94) ng/mL
Genotype SULT1A2 *2/*3, n = 13
  plasma concentration, mean ±SD: 46.94 ± 17.33 ng/mL
  plasma concentration, range: (17.43–90.66) ng/mL
Genotype SULT1A2 *3/*3, n = 5
  plasma concentration, mean ±SD: 38.35 ± 10.17 ng/mL
  plasma concentration, range: (26.15–50.56) ng/mL
Genotype SULT1A2 wt/*2, n = 33
  plasma concentration, mean ±SD: 60.87 ± 31.96 ng/mL
  plasma concentration, median: 54.04 ng/mL
  plasma concentration, range: (20.53–142.97) ng/mL
Genotype SULT1A2 wt/*3, n = 16
  plasma concentration, mean ±SD: 47.29 ± 17.70 ng/mL
  plasma concentration, median: 46.20 ng/mL
  plasma concentration, range: (19.18–83.68) ng/mL
Genotype SULT1A2 wt/wt, n = 38
  plasma concentration, mean ±SD: 47.65 ± 19.19 ng/mL
  plasma concentration, median: 42.71 ng/mL
  plasma concentration, range: (15.69–99.37) ng/mL
Genotype SULT1E1 *2/*2, n = 5
  plasma concentration, mean ±SD: 49.86 ± 8.94 ng/mL
Genotype SULT1E1 wt/*2, n = 28
  plasma concentration, mean ±SD: 47.65 ± 19.38 ng/mL
  plasma concentration, median: 47.94 ng/mL
  plasma concentration, range: (20.53–90.66) ng/mL
Genotype SULT1E1 wt/wt, n = 88
  plasma concentration, mean ±SD: 51.48 ± 25.13 ng/mL
  plasma concentration, range: (15.69–142.97) ng/mL
